{"source": "patent US10076511B2", "about": "“Bisamide derivative of dicarboxylic acid as an agent for stimulating tissue regeneration and recovery of diminished tissue function” (TREAMID GmbH, priority 2015, dated 2018)", "key": {"male rats": {"tested_on": "male rats", "format": "in vivo, rat", "settings": "Day 45 and Day 65", "method": "The latter was simulated by a single injection of cytostatic drug Paclitaxel (Mitotax, Dr. Reddy's, India) to male rats (3 months of age). The choice of the drug was due to the fact that it is one of the medications that damage the precursors of spermatogenesis—stem cells.\nPaclitaxel was administered to the animals of the control and test groups once intravenously at the maximum tolerated dose of 7.6 mg/kg. Treamid was administered to the animals of the experimental groups intragastrically at a dose of 5 mg/kg in the form of a suspension in 2% starch mucus for 15 days a month after the administration of Paclitaxel. The control animals received an equivalent volume of the solvent (2% starch mucus), instead of the test compound. […]\nOn Day 1 (in 24 hours), as well as on Day 45 and Day 65 after the administration of Paclitaxel, the animals were euthanized, and the preparations of their testes were made. Further, the content of progenitor cells of spermatogenesis in the testes was determined by an in vitro cloning method. […] Then, the nonadherent fraction of cells was collected, and the number of cells (cells/ml) was counted in the Goriaev chamber. […] After the incubation, the number of colony-forming units, spermatogenic (CFU-Sp)—clusters of more than 30 cells of round shape and of various diameters—was counted. […]"}, "male C57BL/6 mice": {"tested_on": "male C57BL/6 mice", "experiment": "Metabolic syndrome model in mice (streptozotocin + high-fat diet): pancreas, glucose, testosterone", "format": "in vivo, mouse", "method": "Metabolic disorders were simulated as follows: on Day 2 after birth, male C57Bl/6 mice were injected with streptozotocin at a dose of 200 mg/kg once, subcutaneously in the withers area, and the volume of the injected solution was 30 μl. From week 4 after birth, the animals were transferred to a diet high in fat. For this purpose, the used feed was enriched with heavy saturated fats (30% fat) (Siff EF R/M with 30% Fat Cat No. E15116-34, Germany). The duration of feeding with a high-fat feed was 42 days (from Day 28 to Day 70 of the experiment). […] The control animals received the equivalent volume of a solvent (2% starch mucus), instead of the test compound.\nOn Days 28, 35, 42, 49, 56, 63, and 70 of the study, blood glucose was determined. The blood glucose level was determined with a glucometer meter (Accu-Chek Performs Nanu (“Roche Diagnostes GmbH”, Germany). Blood glucose was measured in animals after 16-hour feed deprivation; all subsequent measurements of the glucose level were also performed after 16-hour feed deprivation.\nOn Day 70 day, animals were euthanized in a CO2 chamber. Then, the serum free testosterone level was studied, and the morphological examination of the pancreas was performed.\nThe level of free testosterone in the serum was evaluated by enzyme immunoassay according to the protocol of manufacturer's test system.\nFor morphological study, a part of the pancreas adjacent to the spleen was fixed in 10% formalin and poured into paraffin according to the standard method.\nDeparaffined sections of the gland were stained with hematoxylin and eosin. On the sections, the area of 10 serial islets of Langerhans was determined by graphic computer analysis, and the total number of cells and the number of pyknotized cells were counted therein. Then, the number of cells per unit islet area and the percentage of the pyknotized cells were calculated. Inflammatory cells (neutrophils, lymphocytes, macrophages) in the pancreatic tissue and their composition were studied by staining of the histological sections with hematoxylin-eosin."}, "Wistar rats": {"tested_on": "Wistar rats", "experiment": "Pair-test of sexual behavior, rats of late reproductive (14 months) and presenile (19 months) age", "format": "in vivo, rat", "settings": "for EN (the number of ejaculations) / LFM (latency until the first mount) / MN (the number of mounts): 14-month rats", "method": "Erectile dysfunction was simulated by using animals of late and senile reproductive age (14-19 months). Suppression of sexual motivation was simulated by using animals of late reproductive age (14 months).\nExperiments on studying the effect of Treamid on copulatory activity were carried out on 76 Wistar rats (14 months and 19 months of age). Treamid was administered intragastrically for 14 days at a dose of 5 mg/kg. Reference drug Sildenafil (100 mg, PFIZER PGM, France) was also administered intragastrically, which corresponded to clinical use, at a dose of 3 mg/kg twice a week. The sexual activity was estimated by the pair-test of sexual behavior. For this purpose female rats in the estrus stage caused by a preliminary 4-fold injection of the Synestrel were involved in the experiment. The effectiveness of Treamid was estimated by the following indices: latency until the first mating attempt (LFM), the number of mating attempts (MN), and the number of ejaculations (EN). The obtained data were compared with those of the same animals before the administration of Treamid (the first test) and with the data in the control group (the second test)."}, "[1]": {"settings": "Day 70, Treamid (1 mg/kg), n = 8"}, "[2]": {"settings": "First test, before administration of drugs"}, "[3]": {"settings": "Second test, after 14-day administration course, Treamid 5 mg/kg, Sildenafil 3 mg/kg"}, "[4]": {"settings": "19-month rats, First test (before administration of drugs)"}, "[5]": {"settings": "19-month rats, Second test (after 14-day administration course), Treamid 5.0 mg/kg"}}}
{"smiles": "O=C(CCCC(=O)NCCc1ncc[nH]1)NCCc1ncc[nH]1", "note": "[Treamid]", "values": [{"measurement": "increase in the number of colony-forming cells compared with the cytostatic control", "setting": "male rats", "value": "44-48%"}, {"measurement": "Serum glucose concentration", "setting": "male C57BL/6 mice; Day 28 (before Treamid, given Day 49-70)", "value": "5.36 ± 1.28", "unit": "mmol/L"}, {"measurement": "Serum glucose concentration", "setting": "male C57BL/6 mice; Day 35 (before Treamid, given Day 49-70)", "value": "4.21 ± 1.81", "unit": "mmol/L"}, {"measurement": "Serum glucose concentration", "setting": "male C57BL/6 mice; Day 42 (before Treamid, given Day 49-70)", "value": "12.75 ± 2.6", "unit": "mmol/L"}, {"measurement": "Serum glucose concentration", "setting": "male C57BL/6 mice; Day 49, Treamid 10 mg/kg intragastrically Day 49-70", "value": "13.59 ± 2.41", "unit": "mmol/L"}, {"measurement": "Serum glucose concentration (mmol/L)", "setting": "male C57BL/6 mice; Day 56, Treamid 10 mg/kg intragastrically Day 49-70", "value": "12.91 ± 4.48*• mmol/L"}, {"measurement": "Serum glucose concentration (mmol/L)", "setting": "male C57BL/6 mice; Day 63, Treamid 10 mg/kg intragastrically Day 49-70", "value": "14.47 ± 3.21*• mmol/L"}, {"measurement": "Free testosterone (pg/ml), serum", "setting": "male C57BL/6 mice; Day 70, Treamid 10 mg/kg", "value": "3.70 ± 0.46", "unit": "pg/mL"}, {"measurement": "Serum glucose concentration", "setting": "male C57BL/6 mice; Day 70, Treamid 10 mg/kg intragastrically Day 49-70", "value": "21.82 ± 5.83", "unit": "mmol/L"}, {"measurement": "% of pyknotized cells in the islet of Langerhans", "setting": "male C57BL/6 mice; [1]", "value": "0.99 ± 0.06• %"}, {"measurement": "Area of an islet (pixel)", "setting": "male C57BL/6 mice; [1]", "value": "743399 ± 21134*• pixel"}, {"measurement": "The number of islets in 30 vision fields", "setting": "male C57BL/6 mice; [1]", "value": "7.4 ± 0.37•"}, {"measurement": "EN (the number of ejaculations)", "setting": "Wistar rats; [2]", "value": "0.00 ± 0.00"}, {"measurement": "LFM (latency until the first mount)", "setting": "Wistar rats; [2]", "value": "559.08 ± 93.55"}, {"measurement": "MN (the number of mounts)", "setting": "Wistar rats; [2]", "value": "1.42 ± 0.50"}, {"measurement": "EN (the number of ejaculations)", "setting": "Wistar rats; [3]", "value": "0.60 ± 0.22⋄*"}, {"measurement": "MN (the number of mounts)", "setting": "Wistar rats; [3]", "value": "6.90 ± 1.88⋄"}, {"measurement": "LFM (latency until the first mount)", "setting": "Wistar rats; Second test, after 14-day administration course, Treamid 5 mg/kg, Sildenafil 3 mg/kg intragastrically", "value": "364.80 ± 127.66"}, {"measurement": "EN (abs.)", "setting": "Wistar rats; [4]", "value": "0.00 ± 0.00", "unit": "abs."}, {"measurement": "LFM", "setting": "Wistar rats; [4]", "value": "310.27 ± 94.59", "unit": "s"}, {"measurement": "MN (abs.)", "setting": "Wistar rats; [4]", "value": "4.27 ± 1.04", "unit": "abs."}, {"measurement": "EN", "setting": "Wistar rats; [5]", "value": "0.20 ± 0.13⋄*"}, {"measurement": "LFM", "setting": "Wistar rats; [5]", "value": "297.20 ± 117.04", "unit": "s"}, {"measurement": "MN (abs.)", "setting": "Wistar rats; [5]", "value": "7.90 ± 1.45⋄ abs."}]}
